Molecules are shown by their SMILES.

Usually IC50 stands for the concentration needed to halve the response being measured.

For test [1], the target named is T1, MOF-KAT8 (Homo sapiens, UniProt Q9H7Z6).
T1 sequence (Q9H7Z6 177-447): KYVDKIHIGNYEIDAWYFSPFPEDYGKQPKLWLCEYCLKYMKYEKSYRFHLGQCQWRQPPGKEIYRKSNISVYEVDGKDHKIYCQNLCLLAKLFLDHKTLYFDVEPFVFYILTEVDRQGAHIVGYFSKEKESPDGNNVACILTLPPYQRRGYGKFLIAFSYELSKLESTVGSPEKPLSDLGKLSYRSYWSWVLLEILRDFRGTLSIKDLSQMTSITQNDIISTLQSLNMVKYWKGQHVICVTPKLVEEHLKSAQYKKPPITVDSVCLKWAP
As to the kind of experiment: Acetyltransferase biochemical assay (AlphaScreen), KAT8. The note with it: Table 4 (MOF-KAT8); 0.4 μM Acetyl coenzyme A, histone H4, 20 nM enzyme. (In general: In Alpha technology, singlet oxygen from a donor bead excites a nearby acceptor bead.)

Test [2] addresses T2, MOZ-KAT6A (Homo sapiens, UniProt Q92794, A567V).
T2 construct: encoding amino acid residues 507 to 778 (Uniprot Q92794-1) of human KAT6A; made in house; host or cells: E. coli BL21 DE3
As to the kind of experiment: Revised Acetyltransferase Biochemical Assay, KAT6A. The note with it: Table 8 (MOZ-KAT6A), 1 μM Acetyl coenzyme A.

Test [3] has as its target T3, HBO-KAT7 (Homo sapiens, UniProt O95251).
T3 construct: encoding amino acid residues 325 to 611 (Uniprot 095251-1) of human KAT7; made in house; host or cells: E. coli BL21 DE3 RIL
Put plainly: Revised Acetyltransferase Biochemical Assay, KAT7. The note with it: Table 9 (HBO-KAT7), 1 μM Acetyl coenzyme A.

Test [4] deals with T4, TIP60-KAT5 (Homo sapiens, UniProt Q92993).
T4 construct: encoding amino acid residues 2 to 461 (Uniprot Q92993-2) of human KAT5 isoform; made in house; host or cells: E. coli BL21 DE3
As to the kind of experiment: Revised Acetyltransferase Biochemical Assay, KAT5. The note with it: 10 nM KAT5, 1 μM AcCoA, 100 nM histone H4, 90 min.

The subject of test [5] is histone H3 Lysine 14 acetylation (HBO1 mediated) in U2OS cells. Put plainly: Histone H3 Lysine 14 Acetylation Biomarker Assay (384-well, U2OS). Type of test: cell-based. The note with it: Homo sapiens, serum free medium, 24 hours incubation. The method, then: Compounds may be tested for their ability to inhibit acetylation of the histone H3 Lysine 14 (which is HBO1 mediated) marker in the following assay:
The cell line U2OS was seeded at a density of 3,000 cells per well in 384-well optical quality tissue culture plates in RPMI medium supplemented with 10% foetal bovine serum and 10 mM Hepes. The cells were allowed to adhere for 24 hours under standard culture conditions (37 degree Celsius, 5% CO2). At the end of this period the cells were washed with serum free medium. Compound dilutions prepared in DMSO were added to the serum free medium, with negative control wells reserved for treatment with DMSO only and 100% inhibition positive controls receiving a potent inhibitor compound (e.g. (Z)-4-fluoro-N-((3-hydroxyphenyl)sulfonyl)-5-methyl-[1,1′-biphenyl]-3-carbohydrazonic acid) at 10 μM concentration. After incubation for 24 hours, the cells were fixed with 4% formaldehyde in PBS for 15 minutes at room temperature, washed with phosphate buffer saline and blocked with blocking buffer containing 0.2% TritonX100 and 2% BSA. Anti-H3K14ac specific antibody (Cell Signalling Technologies) in blocking buffer was added and incubated overnight at 4 degree Celsius. After washing, a secondary antibody labelled with AlexaFluor 488 dye (ThermoFisher) and Hoechst 33342 (1 μg/mL, Life Technologies) were added for 2 hours incubation at room temperature. Plates were washed and read on a
PerkinElmer Opera HCS high content imaging platform. Using a Columbus image analysis pipeline, individual nuclei were located by Hoechst 33342 stain and the acetylation level was calculated from the AlexaFluor 488-related intensity in the same area. The resulting mean intensity per cell was converted to percent inhibition relative to controls on the same plate and the data fitted against a four-parameter logistic model to determine the 50% inhibitory concentration (IC50).

Test [6] has as its target T4, TIP60-KAT5. Put plainly: Acetyltransferase biochemical assay (AlphaScreen), KAT5. The note with it: Table 1 (TIP60-KAT5); 0.4 μM Acetyl coenzyme A, histone H4, 10 nM enzyme.
For test [7], the target named is T2, MOZ-KAT6A. As to the kind of experiment: Acetyltransferase biochemical assay (AlphaScreen), KAT6A. The note with it: Table 2 (MOZ-KAT6A); 10 μM Acetyl coenzyme A, histone H3.1, 5 nM enzyme.
Test [8] addresses T3, HBO-KAT7. As to the kind of experiment: Acetyltransferase biochemical assay (AlphaScreen), KAT7. The note with it: Table 3 (HBO-KAT7); 0.4 μM Acetyl coenzyme A, histone H3.1, 40 nM enzyme.
For test [9], the system named is histone H3K23 acetylation (KATE mediated) in U2OS cells. As to the kind of experiment: Histone H3 Lysine 23 Acetylation Biomarker Assay (U2OS). The format is cell-based. The note with it: Homo sapiens, 96 well, 24 hours incubation. As to the method:
Compounds may be tested for their ability to inhibit acetylation of the histone H3K23 marker, which is KATE mediated, in the following assay:
The cell line U2OS was seeded at a density of 9,000 cells per well in 96 well optical quality tissue culture plates in RPMI medium and 10% foetal bovine serum, and allowed to adhere for 24 hours under standard culture conditions (37 degree Celsius, 5% CO2). At the end of this period the medium was aspirated. Compound dilutions prepared in DMSO were added to medium, with negative control wells reserved for treatment with DMSO only and 100% inhibition positive controls receiving a potent inhibitor compound (e.g. cas 2055397-28-7, benzoic acid, 3-fluoro-5-(2-pyridinyl)-, 2-[(2-fluorophenyl)sulfonyl]hydrazide) (Baell, J., Nguyen, H. N., Leaver, D. J., Cleary, B. L., Lagiakos, H. R., Sheikh, B. N., Thomas. T. J., Aryl sulfonohydrazides, WO2016198507A1, 2016) at 10 μM concentration and 200 μL transferred to the cells. After incubation for 24 hours, the cells were fixed with 3.7% formaldehyde in PBS for 20 minutes at room temperature, washed (5×5 minutes) with phosphate buffer saline containing 0.1% Tween 20 and blocked with Odyssey blocking buffer (LI-COR, Lincoln, Nebr.) containing 0.1% TritonX100. Anti-H3K23ac specific antibody (Abcam ab177275) in Odyssey blocking buffer containing 0.1% Tween 20 was added and incubated for 16 hours at 4 degree Celsius. After washing (as above), a secondary antibody labelled with Alexa647 dye (LifeTechnologies) and Hoechst 33342 (1 μg/mL, SigmaAldrich) were added for 1 hour incubation. Plates were washed as previously and read on a PerkinElmer Phenix high content imaging platform. Using a Columbus image analysis pipeline, individual nuclei were located by Hoechst 33342 stain and the acetylation level was calculated from the Alexa647-related intensity in the same area. The resulting mean intensity per cell was directly converted to percent inhibition relative to controls on the same plate and the data fitted against a four-parameter logistic model to determine the 50% inhibitory concentration (IC50).

The target in test [10] is T1, MOF-KAT8. Put plainly: Revised Acetyltransferase Biochemical Assay, KAT8.
In test [11] the test system is histone H2A.Z Lysine 7 acetylation (TIP60 mediated) in U2OS cells. As to the kind of experiment: H2A.Z Lysine 7 Acetylation Biomarker Assay (384-well, U2OS). Type of test: cell-based. The note with it: Homo sapiens, serum free medium, 24 hours incubation. The method, then:
Compounds may be tested for their ability to inhibit the histone H2A.Z Lysine 7 acetylation marker (which is TIP60 mediated) in the following assay:
The cell line U2OS was seeded at a density of 3,000 cells per well in 384-well optical quality tissue culture plates in RPMI medium supplemented with 10% foetal bovine serum and 10 mM Hepes. The cells were allowed to adhere for 24 hours under standard culture conditions (37 degree Celsius, 5% CO2). At the end of this period the cells were washed with serum free medium. […] After incubation for 24 hours, the cells were fixed with 4% formaldehyde in PBS for 15 minutes at room temperature, washed with phosphate buffer saline and blocked with blocking buffer containing 0.2% TritonX100 and 2% BSA. Anti-H2A.ZK7ac specific antibody (Abcam) in blocking buffer was added and incubated overnight at 4 degree Celsius. After washing, a secondary antibody labelled with AlexaFluor 488 dye (ThermoFisher) and Hoechst 33342 (1 μg/mL, Life Technologies) were added for 2 hours incubation at room temperature. Plates were washed and read on a PerkinElmer Opera HCS high content imaging platform. Using a Columbus image analysis pipeline, individual nuclei were located by Hoechst 33342 stain and the acetylation level was calculated from the AlexaFluor 488-related intensity in the same area. The resulting mean intensity per cell was converted to percent inhibition relative to controls on the same plate and the data fitted against a four-parameter logistic model to determine the 50% inhibitory concentration (IC50).

T4 sequence (Q92993 2-461 isoform Q92993-2): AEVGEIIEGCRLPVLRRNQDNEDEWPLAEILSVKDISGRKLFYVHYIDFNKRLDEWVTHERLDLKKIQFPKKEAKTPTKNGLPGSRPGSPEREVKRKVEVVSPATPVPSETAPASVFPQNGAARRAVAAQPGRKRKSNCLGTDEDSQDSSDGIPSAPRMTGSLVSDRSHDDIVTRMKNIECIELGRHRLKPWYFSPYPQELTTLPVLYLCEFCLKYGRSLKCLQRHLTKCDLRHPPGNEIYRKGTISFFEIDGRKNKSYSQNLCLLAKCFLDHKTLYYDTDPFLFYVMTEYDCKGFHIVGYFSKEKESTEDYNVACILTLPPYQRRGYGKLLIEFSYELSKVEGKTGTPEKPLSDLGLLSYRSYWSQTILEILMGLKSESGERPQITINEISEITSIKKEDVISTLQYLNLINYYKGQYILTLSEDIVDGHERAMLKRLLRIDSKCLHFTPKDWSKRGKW
T2 sequence (Q92794 507-778 A567V limits assumed): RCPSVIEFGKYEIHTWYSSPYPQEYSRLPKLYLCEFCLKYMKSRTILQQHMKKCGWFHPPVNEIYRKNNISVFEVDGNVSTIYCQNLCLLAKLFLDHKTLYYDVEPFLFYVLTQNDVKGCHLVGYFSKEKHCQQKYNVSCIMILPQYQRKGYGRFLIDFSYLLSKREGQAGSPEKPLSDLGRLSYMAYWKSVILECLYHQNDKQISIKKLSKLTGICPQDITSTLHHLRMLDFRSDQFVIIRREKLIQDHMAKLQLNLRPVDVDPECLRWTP
T3 sequence (O95251 with tags, fused parts or gaps): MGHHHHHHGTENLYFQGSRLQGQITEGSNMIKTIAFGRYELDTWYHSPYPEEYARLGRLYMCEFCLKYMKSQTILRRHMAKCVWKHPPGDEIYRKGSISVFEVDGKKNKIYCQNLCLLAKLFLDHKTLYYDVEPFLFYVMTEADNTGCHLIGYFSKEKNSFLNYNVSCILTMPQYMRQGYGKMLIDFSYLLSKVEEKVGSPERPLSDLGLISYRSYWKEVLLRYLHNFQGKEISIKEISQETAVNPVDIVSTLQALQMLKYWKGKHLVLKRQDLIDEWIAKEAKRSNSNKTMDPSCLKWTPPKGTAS

With `CC(O)c1ccc2c(c1)S(=O)(=O)NC(C(=O)NCC(c1ccccc1)c1ncco1)=N2` (stereo not drawn) [Example 212, 7-(1-Hydroxyethyl)-N-(2-(oxazol-2-yl)-2-phenylethyl)-2H-benzo[e][1,2,4]thiadiazine-3-carboxamide 1,1-dioxide], the IC50 in test [1] was 40.8 µM; in [2], 0.241 µM; in test [3] it was 1.09 µM; in test [4], 4 µM; in test [5] it was 4.15 µM.
In the case of `O=C(NCC(c1ccccc1)c1ncco1)C1=Nc2ccncc2S(=O)(=O)N1` (stereo not drawn) [Example 97], the IC50 in [6] is greater than 125 µM; in test [7], 4 µM; in test [8], 49.4 µM; in test [2] it was 0.417 µM; in test [4], 26.1 µM; in test [9], greater than 10 µM.
As to `COCc1cnn(-c2ccccc2CCNC(=O)C2=Nc3ccc(I)cc3S(=O)(=O)N2)n1` [Example 239, 7-iodo-N-(2-(4-(methoxymethyl)-2H-1,2,3-triazol-2-yl)phenethyl)-2H-benzo[e][1,2,4]thiadiazine-3-carboxamide 1,1-dioxide], the half-maximal inhibitory concentration (IC50) was greater than 125 µM in test [1]; 0.017 µM in test [2]; 0.686 µM in [3]; 0.597 µM in [4]; 19.2 µM in [5]; 75.6 µM in test [10].
Consider `Cc1cccc(C(CNC(=O)C2=Nc3ccc(Cl)cc3S(=O)(=O)N2)c2ncco2)c1` (stereo not drawn) [Example 234, 7-chloro-N-(2-(oxazol-2-yl)-2-(m-tolyl)ethyl)-2H-benzo[e][1,2,4]thiadiazine-3-carboxamide 1,1-dioxide], for which the IC50 stood at 57.3 µM in test [1]; 0.072 µM in test [2]; 0.089 µM in test [3]; 1.37 µM in test [4]; 6.15 µM in test [11]; 23.6 µM in test [10].
As to `O=C(NCC(c1ncco1)c1ccccc1F)C1=Nc2ccc(I)cc2S(=O)(=O)N1` (stereo not drawn) [Example 235, N-(2-(2-fluorophenyl)-2-(oxazol-2-yl)ethyl)-7-iodo-2H-benzo[e][1,2,4]thiadiazine-3-carboxamide 1,1-dioxide], the IC50 in test [1] stood at 6.59 µM; in test [2], 0.009 µM; in [3], 0.115 µM; in test [4] it was 0.034 µM; in test [11] it was 1.08 µM; in test [10], 3.23 µM.
As to `CNC(=O)CCOC(=O)C(CNC(=O)C1=Nc2ccc(I)cc2S(=O)(=O)N1)c1ccccc1` (stereo not drawn) [Example 183], the half-maximal inhibitory concentration (IC50) in test [1] came to 36.3 µM; in [2], 0.044 µM; in test [3], 0.718 µM; in test [4], 0.068 µM; in test [11], 33.2 µM; in [10], 30.5 µM.
`O=C(NCC(O)c1ccccc1OC(F)F)C1=Nc2ccc(I)cc2S(=O)(=O)N1` (stereo not drawn) [Example 57, N-(2-(2-(difluoromethoxy)phenyl)-2-hydroxyethyl)-7-iodo-2H-benzo[e][1,2,4]thiadiazine-3-carboxamide 1,1-dioxide]: the IC50 in test [6] was 2.8 µM; in test [8] it was 2.53 µM; in test [2], 0.403 µM; in [3], 0.84 µM; in test [4] it was 0.725 µM; in test [9], greater than 10 µM. Moreover, in test [10], the IC50 stood at 11.3 µM.
Take `COc1ccccc1C(CNC(=O)C1=Nc2ccc(I)cc2S(=O)(=O)N1)c1ncco1` (stereo not drawn) [Example 184, 7-iodo-N-(2-(2-methoxyphenyl)-2-(oxazol-2-yl)ethyl)-2H-benzo[e][1,2,4]thiadiazine-3-carboxamide 1,1-dioxide]: the IC50 amounted to 9.22 µM in test [1]; 0.008 µM in test [2]; 0.114 µM in [3]; 0.099 µM in [4]; 8.28 µM in [11]; 10.2 µM in [10].
Take `O=C(NCC(c1ccccn1)n1cccn1)C1=Nc2ccc(Br)cc2S(=O)(=O)N1` (stereo not drawn) [Example 244, N-(2-(1H-Pyrazol-1-yl)-2-(pyridin-2-yl)ethyl)-7-bromo-4H-benzo[e][1,2,4]thiadiazine-3-carboxamide 1,1-dioxide]: the IC50 was 82.9 µM in test [1]; 6.83 µM in test [2]; 3.83 µM in [3]; 14.6 µM in test [4]; greater than 40 µM in test [5].
Take `COc1ccccc1C(CNC(=O)C1=Nc2ccc(Cl)cc2S(=O)(=O)N1)c1ncco1` (stereo not drawn) [Example 178]: the half-maximal inhibitory concentration (IC50) came to 0.571 µM in test [8]; 106 µM in [1]; 0.021 µM in test [2]; 0.112 µM in [3]; 0.852 µM in test [4]; 20.5 µM in test [11]. In [10], this compound registered an IC50 of 61 µM.
